Experimental data published in patent US20210128537A1, “T-TYPE CALCIUM CHANNEL MODULATORS AND METHODS OF USE THEREOF” (Praxis Precision Medicines, inc., priority 2016, published 2021).

Columns and labels:
post-SE rats [1] = test: Sucrose preference test in post-SE rats; type: in vivo, rat; details: Z944 60 mg/kg/day for 4 weeks, p<0.05
Experimental: (§1) All behavioural tests were performed in a light-controlled (˜110 lux), closed, quiet and clean room in the. Behavioural testing was performed in a blinded manner to the treatment groups. All of the behavioural tests were video recorded for future analysis. OF, EPM and MWM sessions were filmed using a digital camera mounted above the centre of the arena, which was connected to a computer for the recording and objective analysis of digitized behavioural tests (EthoVision 3.0.15, Noldus). The first behavioural test was performed one week after the last EEG recording. The different behavioural tests/session were performed 24 hours apart from each other. All tests were scored by an experienced observer who was blind to the experimental conditions of the animals.
The SPT was used to assess depressive-like behaviour. The animals remained to stay in their same home cage. One hour before the start of the test, the animals were given up to 0.5 ml of the testing 2% sucrose to ensure that the animals would drink the sucrose solution. The animals were presented with two bottles, one filled with water and the other one filled with 2% sucrose in water for 24 hours. On both tests, bottle position was randomised to avoid position preference. Total fluid intake and percentage preference for sucrose were recorded.

fully kindled rats = test: Amygdala kindling model, anti-seizure testing in fully kindled rats; type: in vivo, rat
Experimental: Animals were implanted with EEG recording electrodes and with a stimulating bipolar electrode in the left basolateral amygdaloid nucleus using the coordinates AP±3.0 mm, ML±5.9 mm, DV±6.0 mm. The after discharge threshold (ADT) for each animal was determined by administering a stimulation (frequency=60.1 Hz; duration=1000 μs) at one minute intervals until a seizure was clicited. The amplitude of the stimulation was started at 0.02 mA with increments of 0.02 mA; the stimulations were stopped when the animal experienced a seizure of ≥6 second duration, or if the amplitude of 0.40 mA was reached without the occurrence of a seizure. […] Kindling was performed twice a day for five days per week with an endpoint of 30 stimulations or until the animal presented five class V seizures (referred to as fully kindled). The seizure severity was classified from 0 (less severe) to V (most severe) according to the Racine Scale (Racine, 1972b). Sham kindled animals were handled the same way as the kindled animals, although no electrical stimulation was applied. An animal is classified as fully kindled once it has experienced 5 class V seizures.
Drug testing was performed twice a week until all animals had received each of the seven treatments, Z944 (5 mg/kg, 10 mg/kg, 30 mg/kg and 100 mg/kg), vehicle (10% DMSO/90% Na^+-CMC or CBZ vehicle 20% DMSO/40% propylene glycol/40% saline), ETX (100 mg/kg) or CBZ (30 mg/kg). Prior to drug testing each day, animals were subjected to a maximum of three pre-drug stimulations 30 minutes apart. The animals qualified for testing on that particular day if a class IV or V seizure was elicited in at least 2 out of 3 pre-drug stimulations. Stimulations consisted of a 1 second train of 1 ms biphasic square wave pulses at a frequency of 60 Hz with current amplitude based on each animal ADT that elicited a seizure. Thirty minutes after the last pre-drug stimulation, the animals received an IP injection of one of the seven treatments in a randomized manner at a dose volume of 5 ml/kg. Six post-drug stimulations were administered to each animal, the first stimulation was given 15 minutes post drug injection (to allow brain penetration of the drugs) and the following five stimulations were delivered in 30 minutes intervals thereafter with the seizure class elicited being recorded after each post-drug stimulation. The duration of the primary and total seizures, if any, were recorded. An investigator blinded to the drug treatment analyzed all EEG recordings. Primary after discharge is the duration of the seizure elicited from the kindling stimulation. Total after discharge is the total seizure duration including any secondary seizures that occur after the primary after discharge. Primary after discharge duration and total seizure duration were recorded and averaged for the 6 post-drug stimulations.
Animal weight and behaviour when handled were monitored for the duration of the experimental period. Additionally, animals were assessed by observation for any adverse effects of drugs on grooming, fur appearance, gait, and excretion.

hCaV3.2 = hCaV3.2 (Homo sapiens, UniProt O95180); test: Inactivated channel state FLIPR assay, concentration-dependent inhibition of hCaV3.2; type: cell-based; details: logistic function fit
hCaV3.2, sequence (O95180 whole entry): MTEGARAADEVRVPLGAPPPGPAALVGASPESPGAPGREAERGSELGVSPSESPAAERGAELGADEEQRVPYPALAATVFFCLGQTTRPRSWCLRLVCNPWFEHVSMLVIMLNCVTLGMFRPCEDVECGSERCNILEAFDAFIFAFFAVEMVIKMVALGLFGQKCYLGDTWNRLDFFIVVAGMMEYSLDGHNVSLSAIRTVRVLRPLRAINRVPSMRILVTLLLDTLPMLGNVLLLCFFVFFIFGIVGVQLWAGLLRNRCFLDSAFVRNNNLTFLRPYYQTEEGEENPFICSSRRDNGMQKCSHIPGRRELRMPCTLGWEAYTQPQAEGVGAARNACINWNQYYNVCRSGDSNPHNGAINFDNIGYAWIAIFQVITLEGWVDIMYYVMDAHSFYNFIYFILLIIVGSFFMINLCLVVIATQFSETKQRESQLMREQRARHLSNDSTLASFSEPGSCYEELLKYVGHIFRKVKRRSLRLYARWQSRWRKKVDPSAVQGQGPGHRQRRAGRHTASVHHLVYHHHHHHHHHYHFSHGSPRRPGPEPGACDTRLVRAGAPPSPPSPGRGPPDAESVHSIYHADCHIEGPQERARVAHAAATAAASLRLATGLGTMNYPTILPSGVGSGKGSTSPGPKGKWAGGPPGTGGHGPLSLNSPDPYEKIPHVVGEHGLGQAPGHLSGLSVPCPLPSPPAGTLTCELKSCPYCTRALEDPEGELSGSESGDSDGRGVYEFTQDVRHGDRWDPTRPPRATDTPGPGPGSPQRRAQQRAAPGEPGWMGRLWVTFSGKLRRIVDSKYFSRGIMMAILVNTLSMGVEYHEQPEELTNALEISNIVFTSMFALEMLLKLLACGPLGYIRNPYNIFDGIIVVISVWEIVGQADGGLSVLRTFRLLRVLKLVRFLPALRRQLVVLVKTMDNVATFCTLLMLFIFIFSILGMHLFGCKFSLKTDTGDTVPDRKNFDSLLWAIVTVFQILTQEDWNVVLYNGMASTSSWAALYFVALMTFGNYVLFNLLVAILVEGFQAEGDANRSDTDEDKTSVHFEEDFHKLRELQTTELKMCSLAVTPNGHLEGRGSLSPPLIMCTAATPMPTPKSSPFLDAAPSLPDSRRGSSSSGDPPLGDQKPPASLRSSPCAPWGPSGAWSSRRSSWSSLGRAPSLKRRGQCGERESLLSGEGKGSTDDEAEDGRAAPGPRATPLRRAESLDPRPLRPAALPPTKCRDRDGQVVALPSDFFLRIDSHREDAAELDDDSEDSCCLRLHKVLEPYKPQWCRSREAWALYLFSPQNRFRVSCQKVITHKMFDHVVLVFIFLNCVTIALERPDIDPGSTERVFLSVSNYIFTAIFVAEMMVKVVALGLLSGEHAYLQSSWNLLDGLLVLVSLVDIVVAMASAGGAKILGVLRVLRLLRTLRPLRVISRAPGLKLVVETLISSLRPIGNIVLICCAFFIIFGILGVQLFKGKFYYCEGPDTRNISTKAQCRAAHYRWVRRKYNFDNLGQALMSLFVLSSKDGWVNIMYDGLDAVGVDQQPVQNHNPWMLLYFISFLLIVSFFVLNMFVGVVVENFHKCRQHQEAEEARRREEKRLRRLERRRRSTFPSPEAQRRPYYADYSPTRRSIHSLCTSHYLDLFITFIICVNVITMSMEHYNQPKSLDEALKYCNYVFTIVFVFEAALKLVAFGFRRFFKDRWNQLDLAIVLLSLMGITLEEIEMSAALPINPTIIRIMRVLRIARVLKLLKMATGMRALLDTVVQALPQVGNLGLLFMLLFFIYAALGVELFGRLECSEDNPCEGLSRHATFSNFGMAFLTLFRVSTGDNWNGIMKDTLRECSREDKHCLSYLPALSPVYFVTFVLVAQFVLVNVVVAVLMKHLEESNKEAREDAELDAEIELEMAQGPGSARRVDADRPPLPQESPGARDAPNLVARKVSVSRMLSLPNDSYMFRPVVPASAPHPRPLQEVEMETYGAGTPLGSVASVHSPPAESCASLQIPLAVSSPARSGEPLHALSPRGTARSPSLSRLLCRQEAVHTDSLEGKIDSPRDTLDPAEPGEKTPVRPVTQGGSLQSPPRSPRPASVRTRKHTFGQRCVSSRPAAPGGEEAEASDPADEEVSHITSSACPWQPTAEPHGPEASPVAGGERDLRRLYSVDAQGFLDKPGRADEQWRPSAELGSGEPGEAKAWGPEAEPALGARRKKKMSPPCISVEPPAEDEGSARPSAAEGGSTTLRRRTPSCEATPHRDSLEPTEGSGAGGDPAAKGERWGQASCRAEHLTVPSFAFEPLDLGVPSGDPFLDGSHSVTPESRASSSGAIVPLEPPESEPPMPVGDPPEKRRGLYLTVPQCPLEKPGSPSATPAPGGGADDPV

[2] = tested on: GAERS nRT T-type Ca2+ channel currents (mixed CaV3.2/CaV3.3 current); test: Thalamic slice whole-cell voltage-clamp recordings of nRT T-type Ca2+ channel currents; type: cell-based, rat; parameters: dose or concentration left out as unconfirmed; details: and wash off
Naïve wistar rats = test: Drug tolerability study, seven-day osmotic pump; type: in vivo, rat
Experimental: Pumps were filled with either Z944 to deliver a daily dose of 60 mg/kg, levetiracetam to deliver a daily dose of 200 mg/kg or vehicle. For the drug tolerability study, osmotic pumps continuously either Z944, levetiracetam or vehicle for 7 days and for the post-SE study osmotic pumps delivered continuously the different treatments for 28 days.
The neurological side effects of the prolonged administration of Z944 and levetiracetam were assessed over one-week. Naïve wistar rats aged 11 weeks were implanted with a seven-day osmotic pump with Z944 (60 mg/kg/day, n=6), levetiracetam (200 mg/kg/day, n=5) and vehicle (n=6). The animals were evaluated twice per day, morning and afternoon, for side effects from the day of pump implantation to 8 days after.

post-SE rats [3] = test: Forced swim test in post-SE rats; type: in vivo, rat; details: Z944 60 mg/kg/day for 4 weeks, p<0.05
Experimental: as §1
The FST was performed in a clear Plexiglas cylinder (50 cm long×30 cm diameter) filled with water (25±1° C.). The FST was divided into a 15-min training session and a 5-min test session performed 24 h later, as previously described. Immobility time and swimming time were analysed.

post-SE rats [4] = test: Morris water maze in post-SE rats; type: in vivo, rat; details: Z944 60 mg/kg/day, levetiracetam 200 mg/kg/day for 4 weeks
Experimental: as §1
The MWM is a circular black PVC plastic pool of 160 cm diameter which is filled to a depth of either 2.5 cm above a 10 cm diameter hidden platform water at 25±1° C. The platform is located in the centre of the South-West quadrant during the first 3 sessions and changed to North-East quadrant for the remaining sessions. Visual cues are placed in the main 4 cardinal points, consisting of large black and white symbols that serve as orientation landmarks for the rats. […] The latency to find the escape platform, speed and strategic path used by the animal to locate the platform are recorded. […]

CC(C)(C)NC(=O)CN1CCC(CNC(=O)c2cc(F)cc(Cl)c2)CC1 [Z944]
sucrose preference (post-SE rats [1]): vehicle had a reduced sucrose preference compared to both sham groups and post-SE+Z944 group
seizure class elicited (Racine scale) (fully kindled rats; IP, Z944 5, 10, 30, 100 mg/kg, CBZ 30 mg/kg, compared to vehicle): does not suppress seizures
primary after discharge (fully kindled rats; IP, all four doses of Z944, ETX 100 mg/kg, CBZ 30 mg/kg, compared to vehicle (p>0.5)): did not affect the primary after discharge
adverse effects (sedation scale 0-4) compared to vehicle (fully kindled rats; Z944 100 mg/kg, CBZ 30 mg/kg IP, p<0.01): significantly higher adverse effects
adverse effects (sedation scale 0-4), dose dependence (fully kindled rats; Z944 5 to 100 mg/kg IP): dose dependent
slope of the concentration-inhibition curve (hCaV3.2): 1.5
reversibility of inhibition of GAERS nRT T-type Ca2+ channel currents [2]: nonreversible inhibition
neurological side effects in comparison to vehicle (Naïve wistar rats; 60 mg/kg/day osmotic pump, day 2 to day 5): transient and minimal side effects
neurological side effects compared to levetiracetam treated animals (Naïve wistar rats; Z944 60 mg/kg/day vs levetiracetam 200 mg/kg/day, day 2 and 3, p<0.05): significantly reduced neurological side effects
forced swim test immobility time (post-SE rats [3]): vehicle had an increased immobility time when compared to both sham groups and post-SE+Z944 group
time to find the hidden platform (cognition) (post-SE rats [4]): Improves Cognition
